Experimental data reported in US7855309B2, “Pesticide benzyloxy- and phenetyl-substituted phenyl-amidine derivatives” (Bayer CropScience AG, priority 2005, dated 2010).
Where two headings read alike, the source gives them in different places.

Columns and labels:
[1] = logP by HPLC on reversed-phase column (EEC Directive 79/831 Annex V.A8); assay type: physicochemical; settings: for chromatographic logP: reversed-phase HPLC column (C18)
Protocol: Temperature: 40° C.; Mobile phases: 0.1% aqueous formic acid and acetonitrile; linear gradient from 10% acetonitrile to 90% acetonitrile.
Calibration was carried out using unbranched alkan-2-ones (comprising 3 to 16 carbon atoms) with known logP values (determination of the logP values by the retention times using linear interpolation between two successive alkanones).

Aedes aegypti larvae = test: In vivo protective test on Aedes aegypti (AEDSAE U)
Protocol: In Vivo Protective Test on Aedes Aegypti (AEDSAE U)
Solvent: 1% N-methylpyrrolidone (NMP)
• 1% diacetonealcohol Dye: brillantsulfoflavin for staining water
To produce a suitable preparation of the active compound, the active compound is mixed with the stated amount of solvent, and the concentrate is diluted with staining water to the desired concentration.
Aedes aegypti larvae are pipetted with a preparation of active ingredient of the desired concentration.
After the specified period of time, mortality in % is determined. 100% means that all larvae have been killed, a 0% means that none of the larvae have been killed.

Myzus persicae = test: In vivo protective test on Myzus persicae (MYZUPE); settings: Chinese cabbage leaf-disks, all instars, spray
Protocol: In Vivo Protective Test on Myzus persicae (MYZUPE)
(§1) Solvent: 78 parts by weight acetone
• 1.5 parts by weight dimethylformamide Dye: 0.5 parts by weight alkylarylpolyglcolether
(§2) To produce a suitable preparation of active compound, 1 part by weight of active compound is mixed with the stated amount of solvent and emulsifier, and the concentrate is diluted with emulsifier-containing water to the desired concentration.
Chinese cabbage (Brassica pekinesis) leaf-disks infected with all instars of the green peach aphid (Myzus persicae), are sprayed with a preparation of the active ingredient at the desired concentration.
After the specified period of time, mortality in % is determined. 100% means that all aphids have been killed; 0% means that none of the aphids have been killed.

Heliothis viresens = test: In vivo protective test on Heliothis virescens (HELIVI); design: species or system Heliotis virescens; settings: soybean leaf sections, eggs
Protocol: In Vivo Protective Test on Heliothis viresens (HELIVI)
as §1
• 1.5 parts by weight dimethylformamide Wetting agent: 0.5 parts by weight alkylarylpolyglcolether
as §2
Soybean (Glycine max.) leaf sections are sprayed with a preparation of the active ingredient of the desired concentration. Once dry, the leaf sections are infested with eggs of cotton bollworm (Heliotis virescens).
After the specified period of time, mortality in % is determined. 100% means that all eggs have been killed and 0% means that none of the eggs have been killed.

[2] = HPLC, C18, 40° C., 0.1% aqueous formic acid and acetonitrile
[3] = pH 2.3, read-out: log P (pH 2.3)

SMILES	log P [1, 2]	activity (mortality) (Myzus persicae)	further results
CCN(C)C=Nc1cc(C)c(OCc2ccc(Cl)cc2)cc1C [Compound 1]	2.14	–	activity (mortality) (Aedes aegypti larvae): good activity
CCN(C)C=Nc1cc(C)c(OCc2c(Cl)cccc2Cl)cc1C [Compound 3]	2.05	good activity	activity (mortality) (Aedes aegypti larvae): good activity
CCN(C)C=Nc1cc(C)c(OC(C)c2c(Cl)cccc2Cl)cc1C (stereo not shown) [Compound 4]	2.52	–	activity (mortality) (Aedes aegypti larvae): good activity
CCN(C)C=Nc1cc(C)c(OC(C)c2ccc(F)cc2)cc1C (stereo not shown) [Compound 6]	2.08	–	activity (mortality) (Aedes aegypti larvae): good activity; activity (mortality) (Heliothis viresens): good activity
CCN(C)C=Nc1cc(C)c(OCc2cccc(Cl)c2)cc1C [Compound 7]	2.13	–	activity (mortality) (Aedes aegypti larvae): good activity; activity (mortality) (Heliothis viresens): good activity
CCN(C)/C=N/c1cc(C)c(OCc2cccc(C(F)(F)F)c2)cc1C [Compound 9, N′-(2,5-dimethyl-4-{[3-(trifluoromethyl)benzyl]oxy}phenyl)-N-ethyl-N-methylimidoformamide]	–	–	chromatographic logP [1, 3]: 2.24; chromatographic logP ([1]; HPLC, C18, 40° C., 0.1% aqueous formic acid and acetonitrile, read-out: log P): 2.24; activity (mortality) (Aedes aegypti larvae): good activity
CCN(C)C=Nc1cc(C)c(OCc2ccc(Cl)c(Cl)c2)cc1C [Compound 13]	2.38	good activity	activity (mortality) (Aedes aegypti larvae): good activity
CCN(C)C=Nc1cc(C)c(OCc2ccc(C(F)(F)F)cc2)cc1C [Compound 14]	2.28	–	activity (mortality) (Aedes aegypti larvae): good activity
CCN(C)C=Nc1cc(C)c(OCc2ccccc2OC(F)(F)F)cc1C [Compound 16]	2.28	good activity	–
CCN(C)C=Nc1cc(C)c(OCc2ccc(Cl)cc2C(F)(F)F)cc1C [Compound 18]	2.52	good activity	activity (mortality) (Aedes aegypti larvae): good activity
CCN(C)C=Nc1cc(C)c(OCc2cc(Cl)cc(C(F)(F)F)c2)cc1C [Compound 19]	2.54	good activity	–
CCN(C)C=Nc1cc(C)c(OCc2cc(C(F)(F)F)ccc2Cl)cc1C [Compound 20]	2.44	good activity	–
CCN(C)C=Nc1cc(C)c(OCc2ccc(C(F)(F)F)cc2Cl)cc1C [Compound 25]	2.47	good activity	–
CCN(C)C=Nc1cc(C)c(OC(C)c2ccccc2Cl)cc1C (stereo not shown) [Compound 29]	2.24	good activity	activity (mortality) (Aedes aegypti larvae): good activity
CCN(C)C=Nc1cc(C)c(OC(C)c2cccc(Cl)c2)cc1C (stereo not shown) [Compound 30]	2.23	good activity	–
CCN(C)C=Nc1cc(C)c(OC(C)c2ccc(Cl)cc2)cc1C (stereo not shown) [Compound 31]	2.26	good activity	–
CCN(C)C=Nc1cc(C)c(CCc2cc(C(F)(F)F)cc(C(F)(F)F)c2)cc1C [Compound 35]	2.79	good activity	–
CCN(C)C=Nc1cc(C)c(OCc2cccc(OCC(F)(F)F)c2)cc1C [Compound 49]	2.21	good activity	–
CCN(C)C=Nc1cc(C)c(OCc2ccc(Oc3ccc(F)cc3)cc2)cc1C [Compound 52]	2.8	good activity	–
CCN(C)C=Nc1cc(C)c(OCc2cc(C)ccc2C)cc1C [Compound 56]	2.23	good activity	–
CCN(C)C=Nc1cc(C)c(OCc2c(F)cccc2Cl)cc1C [Compound 61]	2.09	good activity	–
CCN(C)C=Nc1cc(C)c(OCc2ccc(C)c(C)c2)cc1C [Compound 64]	2.23	good activity	–
CCN(C)C=Nc1cc(C)c(OCc2cccc(Br)c2)cc1C [Compound 65]	2.18	good activity	–

SMILES	log P [1, 2]	activity (mortality) (Myzus persicae)	further results
CCN(C)C=Nc1cc(C)c(OCc2ccccc2SC(F)(F)F)cc1C [Compound 68]	2.36	good activity	–
CCN(C)C=Nc1cc(C)c(OCc2cccc(SC(F)(F)F)c2)cc1C [Compound 69]	2.45	good activity	–
CCN(C)C=Nc1cc(C)c(OCc2ccc(Oc3ccc(SC)cc3)cc2)cc1C [Compound 72]	2.74	good activity	–
CCN(C)C=Nc1cc(C)c(OCc2ccc(Oc3ccc(Cl)cc3)cc2)cc1C [Compound 73]	2.8	good activity	–
Cc1cc(OCc2cccc(OC(F)(F)F)c2)c(C)cc1N=CN1CCCCC1 [Compound 113]	2.39	–	–
Cc1cc(OCc2cccc(SC(F)(F)F)c2)c(C)cc1N=CN1CCCCC1 [Compound 114]	2.48	–	–
Cc1cc(OCc2ccc(SC(F)(F)F)cc2)c(C)cc1N=CN1CCCCC1 [Compound 115]	2.55	–	–
Cc1cc(OCc2ccc(Cl)cc2C(F)(F)F)c(C)cc1N=CN1CCCCC1 [Compound 116]	2.55	–	–
Cc1ccc(COc2cc(C)c(N=CN3CCCCC3)cc2C)cc1Cl [Compound 117]	2.39	–	–
Cc1cc(OCc2cc(Cl)cc(C(F)(F)F)c2)c(C)cc1N=CN1CCCCC1 [Compound 118]	2.61	–	–
Cc1cc(OCc2cc(C(F)(F)F)ccc2Cl)c(C)cc1N=CN1CCCCC1 [Compound 119]	2.58	–	–
Cc1cc(OCc2cccc(C#N)c2)c(C)cc1N=CN1CCCCC1 [Compound 120]	1.9	–	–
COc1cc(COc2cc(C)c(N=CN3CCCCC3)cc2C)ccc1F [Compound 121]	2.06	–	–
Cc1cc(OCc2ccc(OC(F)(F)F)cc2)c(C)cc1N=CN1CCCCC1 [Compound 122]	2.42	–	–
Cc1cc(OCc2ccccc2C(F)(F)F)c(C)cc1N=CN1CCCCC1 [Compound 123]	2.29	–	–
Cc1ccc(COc2cc(C)c(N=CN3CCCCC3)cc2C)cc1 [Compound 124]	2.23	–	–
Cc1cc(OCc2ccc(OC(F)F)cc2)c(C)cc1N=CN1CCCCC1 [Compound 125]	2.16	–	–
Cc1cc(OCc2ccc(C(F)(F)F)cc2)c(C)cc1N=CN1CCCCC1 [Compound 126]	2.58	–	–
Cc1cc(OCc2ccccc2OC(F)F)c(C)cc1N=CN1CCCCC1 [Compound 127]	2.13	–	–
Cc1cc(OCc2ccc3nsnc3c2)c(C)cc1N=CN1CCCCC1 [Compound 128]	1.99	–	–
Cc1cc(OCc2ccc(Cl)c(C(F)(F)F)c2)c(C)cc1N=CN1CCCCC1 [Compound 129]	2.51	–	–
CCN(C)/C=N/c1cc(C)c(I)cc1C [Intermediate (V-1), N′-(4-iodo-2,5-dimethylphenyl)-N-ethyl-N-methylimidoformamide]	–	–	chromatographic logP [1, 3]: 1.21
